Consider 22 compounds from the supplement of paper PMC11061612.

The structures appear in SMILES notation.

Assay in all cases: combination Emax (second highest fraction inhibited in the dose matrix, 72 h); higher = more inhibition; extreme values may be limits of the assay
The test system of experiment [1] is OE33 (Esophageal Adenocarcinoma). A digest of the protocol:
(§1)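 Cell lines in DMEM/F12 or RPMI with 10% FBS were plated in 1536-well plates, held 24 hours at 37°C, 5% CO2, then given two-drug dose matrices for 72 hours (DMSO typically 0.2%). Viability was read by CellTiter-Glo 2.0 luminescence and scaled as inhibition from 0 (vehicle wells) to 1 (blank wells). Combination Emax is the second-highest inhibition in the matrix; Bliss excess is observed combination effect minus expected EA + EB − EA·EB, EA and EB being single-agent effects.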

For experiment [2], the system named is HAL-01 (B-Lymphoblastic Leukemia). A digest of the protocol: as §1
Experiment [3] concerns MOG-G-UVW (Low Grade Glioma). A digest of the protocol: as §1
Experiment [4] has as its system ALL-SIL (T-Lymphoblastic Leukemia). The gist of the method: as §1

For the compound `C=CCn1c(=O)c2cnc(Nc3ccc(N4CCN(C)CC4)cc3)nc2n1-c1cccc(C(C)(C)O)n1` [AZD1775] + CCc1c2c(nc3ccc(O)cc13)-c1cc3c(c(=O)n1C2)COC(=O)[C@]3(O)CC [SN-38] (first compound max 1 µM, partner max 0.3 µM), the “combination Emax” value in experiment [1] turned out to be 0.734; in experiment [2], 1; in experiment [3], 0.945.
For `C=CCn1c(=O)c2cnc(Nc3ccc(N4CCN(C)CC4)cc3)nc2n1-c1cccc(C(C)(C)O)n1` [AZD1775] + Nc1ccn([C@@H]2O[C@H](CO)[C@@H](O)C2(F)F)c(=O)n1 [Gemcitabine] (first compound max 1 µM, partner max 0.3 µM), the “combination Emax” value in experiment [1] was 0.616; in experiment [2] it was 1; in experiment [3] it was 0.938.
In the case of `CN(CCO)CC[C@H](CSc1ccccc1)Nc1ccc(S(=O)(=O)NC(=O)c2ccc(N3CCC([C@@H](O)c4ccccc4-c4ccc(Cl)cc4)CC3)cc2)cc1S(=O)(=O)C(F)(F)F` [AZD4320] + C=CCn1c(=O)c2cnc(Nc3ccc(N4CCN(C)CC4)cc3)nc2n1-c1cccc(C(C)(C)O)n1 [AZD1775] (first compound max 1 µM, partner max 1 µM), the “combination Emax” value was 0.492 in experiment [1], 1 in experiment [2] and 1 in experiment [4].
With `CN(CCO)CC[C@H](CSc1ccccc1)Nc1ccc(S(=O)(=O)NC(=O)c2ccc(N3CCC([C@@H](O)c4ccccc4-c4ccc(Cl)cc4)CC3)cc2)cc1S(=O)(=O)C(F)(F)F` [AZD4320] + CS(=O)(=O)CCNCc1ccc(-c2ccc3ncnc(Nc4ccc(OCc5cccc(F)c5)c(Cl)c4)c3c2)o1 [Lapatinib] (first compound max 1 µM, 7x7, partner max 10 µM), the “combination Emax” value in experiment [1] was determined as 0.806; in experiment [2], 1; in experiment [3], 0.298.
Consider `Cc1c2c(nn1C)CSCc1cc(n(C)n1)CSc1cc(c3ccccc3c1)OCCCc1c(C(=O)O)n(C)c3c-2c(Cl)ccc13` [AZD5991] + CC(=O)O[C@H]1C(=O)[C@@]2(C)[C@H]([C@H](OC(=O)c3ccccc3)[C@]3(O)C[C@H](OC(=O)[C@H](O)[C@@H](NC(=O)c4ccccc4)c4ccccc4)C(C)=C1C3(C)C)[C@]1(OC(C)=O)CO[C@@H]1C[C@@H]2O [Paclitaxel] (first compound max 1 µM, 7x7, partner max 3 µM), for which the “combination Emax” value turned out to be 0.524 in experiment [1], 0.99 in experiment [2] and 0.986 in experiment [3].
In the case of `Cc1c2c(nn1C)CSCc1cc(n(C)n1)CSc1cc(c3ccccc3c1)OCCCc1c(C(=O)O)n(C)c3c-2c(Cl)ccc13` [AZD5991] + CS(=O)(=O)CCNCc1ccc(-c2ccc3ncnc(Nc4ccc(OCc5cccc(F)c5)c(Cl)c4)c3c2)o1 [Lapatinib] (first compound max 1 µM, 7x7, partner max 10 µM), the “combination Emax” value in experiment [1] was 0.529; in experiment [2], 0.965; in experiment [3], 0.311.
Take `Cc1c2c(nn1C)CSCc1cc(n(C)n1)CSc1cc(c3ccccc3c1)OCCCc1c(C(=O)O)n(C)c3c-2c(Cl)ccc13` [AZD5991] + C[C@@H](Nc1cc(F)cc(F)c1)c1cc(C(=O)N(C)C)cc2c(=O)cc(N3CCOCC3)oc12 [AZD8186] (first compound max 1 µM, 7x7, partner max 3 µM): the “combination Emax” value in experiment [2] was determined as 0.734; in experiment [4] it was 0.968; in experiment [3], 0.512.
In the case of `Cc1c2c(nn1C)CSCc1cc(n(C)n1)CSc1cc(c3ccccc3c1)OCCCc1c(C(=O)O)n(C)c3c-2c(Cl)ccc13` [AZD5991] + Nc1ccn([C@@H]2O[C@H](CO)[C@@H](O)C2(F)F)c(=O)n1 [Gemcitabine] (first compound max 1 µM, 7x7, partner max 0.3 µM), the “combination Emax” value was 0.543 in experiment [1], 1 in experiment [2] and 0.857 in experiment [3].
For `C[C@@H]1COCCN1c1cc(C2([S@](C)(=N)=O)CC2)nc(-c2ccnc3[nH]ccc23)n1` [AZD6738] + C1CC(C1)(C(=O)[O-])C(=O)[O-].N.N.[Pt+2] [Carboplatin] (first compound max 10 µM, 7x7, partner max 10 µM), in that order: 0.771, 0.963 and 0.723.
Consider `C[C@@H]1COCCN1c1cc(C2([S@](C)(=N)=O)CC2)nc(-c2ccnc3[nH]ccc23)n1` [AZD6738] + Nc1ccn([C@@H]2O[C@H](CO)[C@@H](O)C2(F)F)c(=O)n1 [Gemcitabine] (first compound max 10 µM, 7x7, partner max 0.3 µM), for which the “combination Emax” value in experiment [1] is 0.752; in experiment [2], 1; in experiment [3], 0.967.
Take `C[C@@H](Nc1cc(F)cc(F)c1)c1cc(C(=O)N(C)C)cc2c(=O)cc(N3CCOCC3)oc12` [AZD8186] + C1CN(CCC1(C(=O)N[C@@H](CCO)C2=CC=C(C=C2)Cl)N)C3=NC=NC4=C3C=CN4 [AZD5363] (first compound max 10 µM, 7x7, partner max 10 µM): the “combination Emax” value in experiment [1] came to 0.332; in experiment [2] it was 0.623; in experiment [3], 0.621.
As to `C[C@@H](Nc1cc(F)cc(F)c1)c1cc(C(=O)N(C)C)cc2c(=O)cc(N3CCOCC3)oc12` [AZD8186] + CC(=O)c1c(C)c2cnc(Nc3ccc(N4CCNCC4)cn3)nc2n(C2CCCC2)c1=O [Palbociclib] (first compound max 10 µM, 7x7, partner max 10 µM), the “combination Emax” value in experiment [1] amounted to 0.477; in experiment [2], 0.793; in experiment [3], 0.718.
Regarding `C[C@@H](Oc1cc(-c2cnn(C3CCNCC3)c2)cnc1N)c1c(Cl)ccc(F)c1Cl` [Crizotinib] + CC1=C(C(=CC=C1)Cl)NC(=O)C2=CN=C(S2)NC3=CC(=NC(=N3)C)N4CCN(CC4)CCO [Dasatinib] (first compound max 10 µM, 7x7, partner max 2 µM), the “combination Emax” value in experiment [1] is 0.853; in experiment [2] it was 0.961; in experiment [3], 0.928.
With `C[C@@H](Oc1cc(-c2cnn(C3CCNCC3)c2)cnc1N)c1c(Cl)ccc(F)c1Cl` [Crizotinib] + Cn1cnc2c(F)c(Nc3ccc(Br)cc3Cl)c(C(=O)NOCCO)cc21 [Selumetinib] (first compound max 10 µM, 7x7, partner max 10 µM), the results for the “combination Emax” value in experiment [1], in experiment [2] and in experiment [3] were 0.539, 0.991 and 0.77, respectively.
For `CS(=O)(=O)CCNCc1ccc(-c2ccc3ncnc(Nc4ccc(OCc5cccc(F)c5)c(Cl)c4)c3c2)o1` [Lapatinib] + Cn1cnc2c(F)c(Nc3ccc(Br)cc3Cl)c(C(=O)NOCCO)cc21 [Selumetinib] (first compound max 10 µM, 7x7, partner max 10 µM), in that order: 0.743, 0.516 and 0.469.
As for `CS(=O)(=O)CCNCc1ccc(-c2ccc3ncnc(Nc4ccc(OCc5cccc(F)c5)c(Cl)c4)c3c2)o1` [Lapatinib] + NC1(c2ccc(-c3nc4ccn5c(=O)[nH]nc5c4cc3-c3ccccc3)cc2)CCC1 [MK-2206] (first compound max 10 µM, 7x7, partner max 10 µM), the “combination Emax” value came out at 0.849 in experiment [1], 0.951 in experiment [2] and 0.648 in experiment [3].
As to `O=C(c1cc(Cc2n[nH]c(=O)c3ccccc23)ccc1F)N1CCN(C(=O)C2CC2)CC1` [Olaparib] + CC1(C)CCC(CN2CCN(c3ccc(C(=O)NS(=O)(=O)c4ccc(NCC5CCOCC5)c([N+](=O)[O-])c4)c(Oc4cnc5[nH]ccc5c4)c3)CC2)=C(c2ccc(Cl)cc2)C1 [Venetoclax] (first compound max 10 µM, 7x7, partner max 1 µM), the entries for the “combination Emax” value in experiment [1], in experiment [2] and in experiment [3] were 0.139, 0.926 and 0.257, respectively.
Regarding `O=C(c1cc(Cc2n[nH]c(=O)c3ccccc23)ccc1F)N1CCN(C(=O)C2CC2)CC1` [Olaparib] + CN(CC[C@H](CSC1=CC=CC=C1)NC2=C(C=C(C=C2)S(=O)(=O)NC(=O)C3=CC=C(C=C3)N4CCC(CC4)[C@H](C5=CC=CC=C5C6=CC=C(C=C6)Cl)O)S(=O)(=O)C(F)(F)F)CCO [AZD4320] (first compound max 10 µM, 7x7, partner max 1 µM), the “combination Emax” value was 0.105 in experiment [1], 0.65 in experiment [2] and 0.344 in experiment [3].
Take `O=C(c1cc(Cc2n[nH]c(=O)c3ccccc23)ccc1F)N1CCN(C(=O)C2CC2)CC1` [Olaparib] + COc1nnc2ccc(N3CCC(c4ccc(OCCN5CCN(C)C(=O)[C@H]5C)cc4)CC3)nn12 [AZD5153] (first compound max 10 µM, 7x7, partner max 1 µM): the “combination Emax” value in experiment [1] came to 0.224; in experiment [2], 0.801; in experiment [3] it was 0.641.
As for `O=C(c1cc(Cc2n[nH]c(=O)c3ccccc23)ccc1F)N1CCN(C(=O)C2CC2)CC1` [Olaparib] + Cc1c2c(nn1C)CSCc1cc(n(C)n1)CSc1cc(c3ccccc3c1)OCCCc1c(C(=O)O)n(C)c3c-2c(Cl)ccc13 [AZD5991] (first compound max 10 µM, 7x7, partner max 1 µM), the “combination Emax” value in experiment [1] is 0.0347; in experiment [2], 0.269; in experiment [3], 0.408.
For `Cc1nc(-c2cn3c(n2)-c2ccc(-c4cnn(C(C)(C)C(N)=O)c4)cc2OCC3)n(C(C)C)n1` [Taselisib] + O=C(Nc1ccc2[nH]nc(-c3ccncc3)c2c1)[C@@H]1CCN(CC(=O)N2CCN(c3ccc(-c4ncccn4)cc3)CC2)C1 [SCH772984] (first compound max 10 µM, 7x7, partner max 5 µM), in that order: 0.831, 0.78 and 0.884.
For `CC1(C)CCC(CN2CCN(c3ccc(C(=O)NS(=O)(=O)c4ccc(NCC5CCOCC5)c([N+](=O)[O-])c4)c(Oc4cnc5[nH]ccc5c4)c3)CC2)=C(c2ccc(Cl)cc2)C1` [Venetoclax] + CS(=O)(=O)CCNCc1ccc(-c2ccc3ncnc(Nc4ccc(OCc5cccc(F)c5)c(Cl)c4)c3c2)o1 [Lapatinib] (first compound max 1 µM, 7x7, partner max 10 µM), in that order: 0.485, 0.968 and 0.213.
